Test results: article PMC5522071, “Preclinical development of G1T38: A novel, potent and selective inhibitor of cyclin dependent kinases 4/6 for use as an oral antineoplastic in patients with CDK4/6 sensitive tumors” (Oncotarget, 2017)
pEC50, pIC50, pKd: −log10 of the molar value.

Tests used:
[1] = system: RNA polymerase II (RPB1) CTD (SER2) phosphorylation in HS68 cells; experiment: Western blot for Rpb1 CTD; format: cell-based; details: immunoblot, 3-1000 nM, 24 hours
CDK5/p25 = molecular target: T1, CDK5/p25 (Homo sapiens, UniProt Q00535); format: biochemical; details: 12-point dose response, singlicate, at Km for ATP
T1 construct: purchased Nanosyn, Inc. (contract assay)
T1 sequence (Q00535 whole entry): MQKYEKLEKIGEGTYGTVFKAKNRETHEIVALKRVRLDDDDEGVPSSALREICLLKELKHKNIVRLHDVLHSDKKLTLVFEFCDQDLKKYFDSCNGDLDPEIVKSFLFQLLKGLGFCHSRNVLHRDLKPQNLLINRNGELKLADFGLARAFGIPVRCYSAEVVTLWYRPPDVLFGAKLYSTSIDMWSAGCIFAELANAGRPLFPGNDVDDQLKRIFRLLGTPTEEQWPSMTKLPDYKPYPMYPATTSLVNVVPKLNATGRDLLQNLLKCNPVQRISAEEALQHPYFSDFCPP
T1 sequence (Q15078 99-307 partner limits assumed): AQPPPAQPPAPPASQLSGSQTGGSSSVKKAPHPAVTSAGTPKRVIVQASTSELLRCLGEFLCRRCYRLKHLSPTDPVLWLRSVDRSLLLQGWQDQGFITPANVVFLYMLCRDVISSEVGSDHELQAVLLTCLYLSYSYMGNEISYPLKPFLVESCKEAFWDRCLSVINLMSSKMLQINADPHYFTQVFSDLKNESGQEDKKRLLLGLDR

[2] = Cellular potency compared with palbociclib; format: cell-based
FLT3 (ITD, D835V) = FLT3 (ITD, D835V) (Homo sapiens, UniProt P36888, D835V/ITD); experiment: KdELECT Kd determination (DiscoveRx); format: binding
Experimental: G1T38 was profiled at DiscoveRx (Fremont, CA) using their KINOMEscan and scanMAX screening technology. Briefly, G1T38 was tested at 100 and 1000 times the biochemical IC50 as described in Figure 1B. All target kinases that responded to greater than 90% inhibition were tested as individuals for Kd determination as described in Supplementary Table 1.
Supplementary Table 1: G1T38 Kinase Interactions
KdELECT® (DiscoveRx) was used as a follow-up to quantify binding affinity of G1T38-kinase interactions identified in the primary screen. Inhibitor binding constants (Kd values) were calculated from duplicate 11-point dose-response curves for targets that elicited >90% inhibition at 100 nM.

MCF7 murine tumors = experiment: Plasma exposure versus % TGI, nonlinear regression; format: in vivo, mice; details: AUC 0-last single dose vs TGI, MCF7, 28 days
[3] = system: CDK4/6-independent cell lines; experiment: Cell proliferation, CellTiter-Glo, statement for the group; format: cell-based; details: read-out: inhibition of proliferation in CDK4/6-independent cell lines
Experimental: To assess the capacity of G1T38 to inhibit proliferation of tumor cell lines, a broad panel of CDK4/6 dependent and independent lines was evaluated using CellTiter Glo (Table 2).
SupT1, Daudi, MCF7, ZR-75-1, A2058, WM2664, and H69 cells were seeded at 1000 cells per well; MV-4-11 and BV173 cells were plated at 4000 cells per well; Tom-1 cells were plated at 8,000 cells per well; NALM-1 cells were plated at 20,000 cells per well in Costar 3903 96 well plates. After 24 hours, plates were dosed with G1T38 at a nine-point dose concentration from 10 μM to 1 nM. Cell viability was determined after four or six days using the CellTiter-Glo® assay (Promega; Madison, WI) following manufacturer's recommendations. Plates were processed on BioTek (Winooski, VT) Synergy2 multi-mode plate reader and data analyzed using GraphPad (San Diego, CA) Prism 5 statistical software.

[4] = system: MMTV-Neu GEMM (Her2/Neu) tumors; experiment: Her2Neu breast cancer GEMM; format: in vivo, mice; details: 100 mg/kg in diet, after 21 days of treatment
Experimental: After 21 days, tumor progression was calculated using the formula: (21 day volume – initial volume)/ initial volume x 100. […] Yellow bar represents duration of treatment. Statistics were completed using linear regression analysis of time during treatment (28 days). Error bars represent SEM. **p≤0.01.
Female MMTV-NEU mice (Jackson Labs Strain 002376) were used to test the efficacy of G1T38 (100 mpk, medicated diet). Drug was incorporated into diet by Research Diets (New Brunswick, NJ) using the following parameters; 25 gm mouse eating 3.2 gm of food/day. Mice were monitored for tumor development by palpating them weekly as per University of North Carolina at Chapel Hill Lineberger Mouse Phase 1 Unit (MP1U) protocol. At time of treatment, body composition was assessed and weight measurements (in grams) were recorded and used as a measure of gross toxicity. Mice were monitored until euthanized at predetermined humane endpoints per approved University of North Carolina at Chapel Hill IACUC protocols.

CDK9/Cyclin T = molecular target: T2, CDK9/Cyclin T (Homo sapiens, UniProt P50750); format: biochemical; details: 12-point dose response, singlicate, at Km for ATP
T2 construct: purchased Nanosyn, Inc. (contract assay)
T2 sequence (P50750 whole entry): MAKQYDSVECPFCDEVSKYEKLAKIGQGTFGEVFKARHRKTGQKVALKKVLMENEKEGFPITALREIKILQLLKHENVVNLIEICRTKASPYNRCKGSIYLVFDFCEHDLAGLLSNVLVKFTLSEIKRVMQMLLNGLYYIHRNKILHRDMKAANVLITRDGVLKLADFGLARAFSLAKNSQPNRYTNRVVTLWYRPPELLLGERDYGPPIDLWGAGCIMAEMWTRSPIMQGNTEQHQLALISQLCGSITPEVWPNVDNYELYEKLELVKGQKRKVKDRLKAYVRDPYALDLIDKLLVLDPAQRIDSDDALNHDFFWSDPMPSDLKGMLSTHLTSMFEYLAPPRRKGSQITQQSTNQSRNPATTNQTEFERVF
T2 sequence (O60563 whole entry partner): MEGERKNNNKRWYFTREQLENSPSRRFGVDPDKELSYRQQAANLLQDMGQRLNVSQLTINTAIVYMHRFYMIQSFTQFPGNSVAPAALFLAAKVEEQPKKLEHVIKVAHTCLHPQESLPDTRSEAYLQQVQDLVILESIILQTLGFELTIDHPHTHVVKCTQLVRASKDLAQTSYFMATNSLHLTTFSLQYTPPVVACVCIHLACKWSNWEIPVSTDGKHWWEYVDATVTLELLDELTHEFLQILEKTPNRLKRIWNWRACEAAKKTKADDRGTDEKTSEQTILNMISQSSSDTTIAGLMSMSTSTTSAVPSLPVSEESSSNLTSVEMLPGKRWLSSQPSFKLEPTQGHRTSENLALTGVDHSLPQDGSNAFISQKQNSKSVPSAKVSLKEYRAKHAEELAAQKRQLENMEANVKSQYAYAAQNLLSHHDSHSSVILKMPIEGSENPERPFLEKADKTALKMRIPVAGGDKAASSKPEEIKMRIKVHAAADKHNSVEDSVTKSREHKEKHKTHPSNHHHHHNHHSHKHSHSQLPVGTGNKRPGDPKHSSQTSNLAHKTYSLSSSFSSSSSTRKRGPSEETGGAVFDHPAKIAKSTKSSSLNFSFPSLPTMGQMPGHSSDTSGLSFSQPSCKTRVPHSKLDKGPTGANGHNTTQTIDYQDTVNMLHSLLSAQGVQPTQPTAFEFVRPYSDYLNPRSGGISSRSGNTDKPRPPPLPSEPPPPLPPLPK

in vivo = experiment: in vivo
Experimental: Supplementary Table 2: Elimination Half-Lives of G1T38
T1/2 (hrs) Mouse Rat Dog Human
Elimination half-lives (T1/2) were determined for G1T38 (in-house results and calculated as part of NCT02821624) and
In lower order species, mice and rats, values are similar between both compounds, however in dogs and […]

CDK6/Cyclin D3 = molecular target: T3, CDK6/Cyclin D3 (Homo sapiens, UniProt Q00534); format: biochemical; details: 12-point dose response, singlicate, at Km for ATP
T3 construct: purchased Nanosyn, Inc. (contract assay)
T3 sequence (Q00534 whole entry): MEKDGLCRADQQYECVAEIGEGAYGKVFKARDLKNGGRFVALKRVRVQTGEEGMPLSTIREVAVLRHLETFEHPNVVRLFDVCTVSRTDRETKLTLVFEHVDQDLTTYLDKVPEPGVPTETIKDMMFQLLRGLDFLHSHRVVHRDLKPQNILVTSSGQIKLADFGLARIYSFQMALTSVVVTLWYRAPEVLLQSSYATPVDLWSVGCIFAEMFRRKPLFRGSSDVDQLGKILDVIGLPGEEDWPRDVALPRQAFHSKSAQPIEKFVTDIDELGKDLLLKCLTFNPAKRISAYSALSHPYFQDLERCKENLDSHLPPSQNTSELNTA
T3 sequence (P30281 whole entry partner): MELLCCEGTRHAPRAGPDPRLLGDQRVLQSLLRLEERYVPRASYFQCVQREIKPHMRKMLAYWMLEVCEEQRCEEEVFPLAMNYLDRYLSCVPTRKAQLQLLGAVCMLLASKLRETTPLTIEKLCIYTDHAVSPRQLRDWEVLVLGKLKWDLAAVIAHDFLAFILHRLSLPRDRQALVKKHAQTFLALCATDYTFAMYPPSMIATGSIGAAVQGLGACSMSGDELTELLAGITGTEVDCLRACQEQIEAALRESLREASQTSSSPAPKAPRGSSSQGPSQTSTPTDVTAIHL

H1975 xenograft = experiment: H1975 NSCLC xenograft model; format: in vivo, mice; details: for TGI: single agent, by 18 days of treatment
Source text: To evaluate the efficacy of G1T38 in combination with EGFR inhibitors, the H1975 xenograft model was utilized. H1975 is a human NSCLC that harbors the […] mutations rendering resistance to erlotinib treatment.
Afatinib is an irreversible second generation pan-ErbB inhibitor developed as a first-line treatment of patients with metastatic NSCLC whose tumors harbor EGFR mutations or deletions as well as in patients with metastatic disease that progressed after platinum-based chemotherapy.
Female NCI Ath/nu mice were implanted with H1975 NSC lung adenocarcinoma model. Once tumors reached an average size of 100- 150 mm^3, mice were randomized into treatment cohorts. Mice were orally administered daily afatinib (20 mg/kg, Genentech/OSI), erlotinib (70 mg/kg, LC Labs), or G1T38 (50 or 100 mg/kg), as single agents or in combination (G1T38 + erlotinib or G1T38 + afatinib) for the duration of the study. Tumors were measured twice weekly until mice reached tumor burden of 1500 mm^3.

[5] = 28-day repeat-dose GLP toxicity study; format: in vivo; details: rat
[6] = system: myeloid progenitors (Mac1+ Gr1+); experiment: EdU incorporation in bone marrow; details: any treatment cohort (10, 50, 100 mg/kg), 7 days, 12 hours post-treatment

Structure (SMILES): CC(C)N1CCN(c2ccc(Nc3ncc4cc5n(c4n3)C3(CCCCC3)CNC5=O)nc2)CC1.Cl.Cl [G1T38, 2′-((5-(4-isopropylpiperazin-1-yl)pyridin-2-yl)amino)-7′, 8′dihydro-6′Hspiro[cyclohexane1,9′ pyrazino[1′,2′:1,5]pyrrolo[2,3-d]pyrimidin]-6′-one di-hydrochloride]
- RPB1 CTD (SER2) phosphorylation (CDK9/cyclin T function) [1]: no loss
- pIC50 (CDK5/p25): 5.92
- cellular EC50 lower than palbociclib [2]: 2-3 fold
- pKd (FLT3 (ITD, D835V)): 7.66
- EC50 (plasma exposure vs % TGI) lower than palbociclib (MCF7 murine tumors): 3.8 fold
- pEC50 [3]: < 5.60
- tumor regression [4]: 38%
- pIC50 (CDK9/Cyclin T): 7.55
- half-life (in vivo; dog): 10.5 to 14.7 h
- half-life (in vivo; mouse): 2.4 to 5.1 h
- pIC50 (CDK6/Cyclin D3): 8.70
- TGI compared to vehicle, combination with erlotinib (H1975 xenograft; 100 mg/kg G1T38 combined with 70 mg/kg erlotinib for 18 days): 80%
- resistance during treatment, combination with afatinib (H1975 xenograft; G1T38 50 or 100 mg/kg + afatinib 20 mg/kg, 18 days): did not develop resistance
- effect on erlotinib resistance (H1975 xenograft; G1T38 at any dose combined with 70 mg/kg erlotinib): the resistance to the erlotinib was reversed
- TGI (H1975 xenograft; 50 mg/kg daily oral): 33.3%
- TGI (H1975 xenograft; 100 mg/kg daily oral): 60.7%
- findings on oral administration [5]: reduction of bone marrow cellularity and lymphocyte depletion
- myeloid progenitor proliferation compared to vehicle [6]: no differences
